From US20060148014A1, “Tubulin isotype screening in cancer therapy using hemiasterlin analogs” (priority 2004, published 2006)
Like-named read-outs stand apart in the source and are kept apart here.

Tests used:
[1] = system: HCC2218 human breast cancer cell line; test: Cell growth inhibition assay (methylene blue), HCC2218; format: cell-based
Text: (§1) The following human breast cancer cell lines were obtained from the ATCC. Cells were maintained according to ATCC-recommended culture conditions. AU565 (ATCC Catalog No. ATCC Catalog. No. CRL-2351), BT-20 (ATCC Catalog No. HTB-19), MCF7 (ATCC Catalog No. HTB22), MDA-MB-231 (ATCC Catalog No. HTB-26), MDA-MB-435 (ATCC Catalog No. HTB-129), MDA-MB-468 (ATCC Catalog No. HTB-132), HCC38 (ATCC Catalog No. CRL-2314), HCC70 (ATCC Catalog No. CRL-2315), HCC1143 (ATCC Catalog No. CRL-2321), HCC1428 (ATCC Catalog No. CRL-2327), HCC1500 (ATCC Catalog No. CRL-2329), HCC1806 (ATCC Catalog No. CRL-2335), HCC1954 (ATCC Catalog No. CRL-2338), HCC2218 (ATCC Catalog No. CRL-2343), UACC-812 (ATCC Catalog No. CRL-1897), UACC-893 (ATCC Catalog No. CRL-1902), ZR-75-1 (ATCC Catalog No. CRL-1500), ZR-75-30 (ATCC Catalog No. CRL-1504).
(§2) Cultured human breast cancer cells were placed in 96-well plates and grown in the continuous presence of test compounds for 4 or 7 days. To expose the cells to test compounds for 7 days, medium was replaced with fresh medium containing compounds after 4 days of exposure and cells were incubated for 3 additional days. Cell growth was assessed using modifications (Amin et al., Cancer Res., 47:6040-6045, 1987; incorporated herein by reference) of a methylene blue-based microculture assay (Finlay et al., Anal. Biochem., 139:272-277, 1984; incorporated herein by reference).
(§3) To investigate the possible expression of PgP by the cell lines used in this study, the antiproliferative effects of paclitaxel were determined in the presence and absence of verapamil, a known inhibitor of PgP.

[2] = system: MDA-MB-435 human breast cancer cell line; test: Cell growth inhibition assay (methylene blue), MDA-MB-435; format: cell-based
Text: as §1, §2, §3

[3] = system: AU565 human breast cancer cell line; test: Cell growth inhibition assay (methylene blue), AU565; format: cell-based
Text: as §1, §2, §3

[4] = system: MCF-7 human breast cancer cell line; test: Cell growth inhibition assay (methylene blue), MCF-7; format: cell-based
Text: as §1, §2, §3

[5] = system: HCC1419 human breast cancer cell line; test: Cell growth inhibition assay (methylene blue), HCC1419; format: cell-based
Description: as §2, §3

[6] = system: UACC-893 human breast cancer cell line; test: Cell growth inhibition assay (methylene blue), UACC-893; format: cell-based
Text: as §1, §2, §3

[7] = system: HCC1143 human breast cancer cell line; test: Cell growth inhibition assay (methylene blue), HCC1143; format: cell-based
Text: as §1, §2, §3

[8] = system: cells expressing class II β-tubulin; settings: Haber et al. J. Biol. Chem. 1995; cited from earlier work
[9] = system: HCC70 human breast cancer cell line; test: Cell growth inhibition assay (methylene blue), HCC70; format: cell-based
Text: as §1, §2, §3

[10] = system: ZR-75-1 human breast cancer cell line; test: Cell growth inhibition assay (methylene blue), ZR-75-1; format: cell-based
Text: as §1, §2, §3

[11] = system: UACC-812 human breast cancer cell line; test: Cell growth inhibition assay (methylene blue), UACC-812; format: cell-based
Text: as §1, §2, §3

[12] = system: ZR-75-30 human breast cancer cell line; test: Cell growth inhibition assay (methylene blue), ZR-75-30; format: cell-based
Text: as §1, §2, §3

[13] = system: MDA-MB-231 human breast cancer cell line; test: Cell growth inhibition assay (methylene blue), MDA-MB-231; format: cell-based
Text: as §1, §2, §3

[14] = system: BT-20 human breast cancer cell line; test: Cell growth inhibition assay (methylene blue), BT-20; format: cell-based
Text: as §1, §2, §3

[15] = system: HCC1806 human breast cancer cell line; test: Cell growth inhibition assay (methylene blue), HCC1806; format: cell-based
Text: as §1, §2, §3

[16] = system: HCC1500 human breast cancer cell line; test: Cell growth inhibition assay (methylene blue), HCC1500; format: cell-based
Text: as §1, §2, §3

[17] = system: MDA-MB-468 human breast cancer cell line; test: Cell growth inhibition assay (methylene blue), MDA-MB-468; format: cell-based
Text: as §1, §2, §3

[18] = system: HCC1428 human breast cancer cell line; test: Cell growth inhibition assay (methylene blue), HCC1428; format: cell-based
Text: as §1, §2, §3

[19] = +10 μM verapamil (PgP blocker), read-out: Paclitaxel IC50 (+10 μM verapamil)
[20] = continuous presence of compound 4 or 7 days, at least three experiments, read-out: Average IC50
[21] = no verapamil, read-out: Paclitaxel IC50 (no verapamil)

CC(=O)O[C@H]1C(=O)[C@@]2(C)[C@H]([C@H](OC(=O)c3ccccc3)[C@]3(O)C[C@H](OC(=O)[C@H](O)[C@@H](NC(=O)c4ccccc4)c4ccccc4)C(C)=C1C3(C)C)[C@]1(OC(C)=O)CO[C@@H]1C[C@@H]2O [Paclitaxel, paclitaxel]
IC50 ([1]; HC-2218, continuous presence of compound 4 or 7 days, at least three experiments, read-out: Average IC50): 6.72 nM | IC50 ([1]; HCC-2218, +10 μM verapamil (PgP blocker), read-out: Paclitaxel IC50 (+10 μM verapamil)): 5 nM | IC50 ([1]; HCC-2218, no verapamil, read-out: Paclitaxel IC50 (no verapamil)): 5.6 nM | IC50 [2, 19]: 2.7 nM | IC50 [2, 20]: 2.42 nM | IC50 [2, 21]: 2.6 nM | IC50 ([3]; AU-565, +10 μM verapamil (PgP blocker), read-out: Paclitaxel IC50 (+10 μM verapamil)): 4.8 nM | IC50 ([3]; AU-565, no verapamil, read-out: Paclitaxel IC50 (no verapamil)): 5.4 nM | IC50 [3, 20]: 2.5 nM | IC50 ([4]; MCF7, +10 μM verapamil (PgP blocker), read-out: Paclitaxel IC50 (+10 μM verapamil)): 2.7 nM | IC50 ([4]; MCF7, continuous presence of compound 4 or 7 days, at least three experiments, read-out: Average IC50): 2.31 nM | IC50 ([4]; MCF7, no verapamil, read-out: Paclitaxel IC50 (no verapamil)): 3.3 nM | IC50 ([5]; HCC-1419, +10 μM verapamil (PgP blocker), read-out: Paclitaxel IC50 (+10 μM verapamil)): 7 nM | IC50 ([5]; HCC-1419, no verapamil, read-out: Paclitaxel IC50 (no verapamil)): 5.2 nM | IC50 [5, 20]: 5.41 nM | IC50 [6, 19]: 4.1 nM | IC50 [6, 20]: 2.73 nM | IC50 [6, 21]: 6.3 nM | IC50 ([7]; HCC-1143, +10 μM verapamil (PgP blocker), read-out: Paclitaxel IC50 (+10 μM verapamil)): 2.9 nM | IC50 ([7]; HCC-1143, no verapamil, read-out: Paclitaxel IC50 (no verapamil)): 2.8 nM | IC50 [7, 20]: 2.11 nM | effectiveness in treating cells expressing class II β-tubulin [8]: not be effective | IC50 ([9]; HCC-70, +10 μM verapamil (PgP blocker), read-out: Paclitaxel IC50 (+10 μM verapamil)): 1.9 nM | IC50 ([9]; HCC-70, no verapamil, read-out: Paclitaxel IC50 (no verapamil)): 2 nM | IC50 [9, 20]: 2.25 nM | IC50 [10, 19]: 5.9 nM | IC50 [10, 20]: 3.35 nM | IC50 [10, 21]: 5.3 nM | IC50 [11, 19]: 1.9 nM | IC50 [11, 20]: 1.46 nM | IC50 [11, 21]: 2.7 nM | IC50 [12, 19]: 4.1 nM | IC50 [12, 20]: 4.06 nM | IC50 [12, 21]: 3.9 nM | IC50 [13, 19]: 5.1 nM | IC50 [13, 20]: 5.07 nM | IC50 [13, 21]: 4.9 nM | IC50 [14, 19]: 2.7 nM | IC50 [14, 20]: 2.63 nM | IC50 [14, 21]: 3.9 nM | IC50 ([15]; HCC-1806, +10 μM verapamil (PgP blocker), read-out: Paclitaxel IC50 (+10 μM verapamil)): 1.9 nM | IC50 ([15]; HCC-1806, no verapamil, read-out: Paclitaxel IC50 (no verapamil)): 1.8 nM | IC50 [15, 20]: 2.1 nM | IC50 ([16]; HCC-1500, +10 μM verapamil (PgP blocker), read-out: Paclitaxel IC50 (+10 μM verapamil)): 3.2 nM | IC50 ([16]; HCC-1500, no verapamil, read-out: Paclitaxel IC50 (no verapamil)): 4.6 nM | IC50 [16, 20]: 2.48 nM | IC50 [17, 19]: 5.4 nM | IC50 [17, 20]: 4.3 nM | IC50 [17, 21]: 5.1 nM | IC50 ([18]; HCC-1428, +10 μM verapamil (PgP blocker), read-out: Paclitaxel IC50 (+10 μM verapamil)): 9.5 nM | IC50 ([18]; HCC-1428, no verapamil, read-out: Paclitaxel IC50 (no verapamil)): 9 nM | IC50 [18, 20]: 5.03 nM
